Target: T1, ΔF508-CFTR (Homo sapiens, UniProt P13569, DEL508-508)
T1 construct: expressed in transfected cells
Experiment: Membrane potential optical assay for ΔF508-CFTR correction (identification of correction compounds)
Assay type: cell-based
Conditions: NIH3T3; NIH 3T3 cells stably expressing ΔF508-CFTR; read-out: % Efficacy
Description: Assays for Detecting and Measuring M508-CFTR Correction Properties of Compounds
Membrane potential optical methods for assaying ΔF508-CFTR modulation properties of compounds.
The assay utilizes fluorescent voltage sensing dyes to measure changes in membrane potential using a fluorescent plate reader (e.g., FLIPR III, Molecular Devices, Inc.) as a readout for increase in functional ΔF508-CFTR in NIH 3T3 cells. The driving force for the response is the creation of a chloride ion gradient in conjunction with channel activation by a single liquid addition step after the cells have previously been treated with compounds and subsequently loaded with a voltage sensing dye.
To identify small molecules that correct the trafficking defect associated with ˜F508-CFTR; a single-addition HTS assay format was developed. Assay Plates containing cells are incubated for ˜2-4 hours in tissue culture incubator at 37° C., S % CO2, 90% humidity. Cells are then ready for compound exposure after adhering to the bottom of the assay plates.
The cells were incubated in serum-free medium for 16-24 hrs in tissue culture incubator at 37° C., S % CO2, 90% humidity in the presence or absence (negative control) of test compound. […] The addition of Cl^−-free medium promoted Cl^− efflux in response to ΔF508-CFTR activation and the resulting membrane depolarization was optically monitored using voltage sensor dyes. […]

T1 sequence (P13569 with tags, fused parts or gaps DEL508-508): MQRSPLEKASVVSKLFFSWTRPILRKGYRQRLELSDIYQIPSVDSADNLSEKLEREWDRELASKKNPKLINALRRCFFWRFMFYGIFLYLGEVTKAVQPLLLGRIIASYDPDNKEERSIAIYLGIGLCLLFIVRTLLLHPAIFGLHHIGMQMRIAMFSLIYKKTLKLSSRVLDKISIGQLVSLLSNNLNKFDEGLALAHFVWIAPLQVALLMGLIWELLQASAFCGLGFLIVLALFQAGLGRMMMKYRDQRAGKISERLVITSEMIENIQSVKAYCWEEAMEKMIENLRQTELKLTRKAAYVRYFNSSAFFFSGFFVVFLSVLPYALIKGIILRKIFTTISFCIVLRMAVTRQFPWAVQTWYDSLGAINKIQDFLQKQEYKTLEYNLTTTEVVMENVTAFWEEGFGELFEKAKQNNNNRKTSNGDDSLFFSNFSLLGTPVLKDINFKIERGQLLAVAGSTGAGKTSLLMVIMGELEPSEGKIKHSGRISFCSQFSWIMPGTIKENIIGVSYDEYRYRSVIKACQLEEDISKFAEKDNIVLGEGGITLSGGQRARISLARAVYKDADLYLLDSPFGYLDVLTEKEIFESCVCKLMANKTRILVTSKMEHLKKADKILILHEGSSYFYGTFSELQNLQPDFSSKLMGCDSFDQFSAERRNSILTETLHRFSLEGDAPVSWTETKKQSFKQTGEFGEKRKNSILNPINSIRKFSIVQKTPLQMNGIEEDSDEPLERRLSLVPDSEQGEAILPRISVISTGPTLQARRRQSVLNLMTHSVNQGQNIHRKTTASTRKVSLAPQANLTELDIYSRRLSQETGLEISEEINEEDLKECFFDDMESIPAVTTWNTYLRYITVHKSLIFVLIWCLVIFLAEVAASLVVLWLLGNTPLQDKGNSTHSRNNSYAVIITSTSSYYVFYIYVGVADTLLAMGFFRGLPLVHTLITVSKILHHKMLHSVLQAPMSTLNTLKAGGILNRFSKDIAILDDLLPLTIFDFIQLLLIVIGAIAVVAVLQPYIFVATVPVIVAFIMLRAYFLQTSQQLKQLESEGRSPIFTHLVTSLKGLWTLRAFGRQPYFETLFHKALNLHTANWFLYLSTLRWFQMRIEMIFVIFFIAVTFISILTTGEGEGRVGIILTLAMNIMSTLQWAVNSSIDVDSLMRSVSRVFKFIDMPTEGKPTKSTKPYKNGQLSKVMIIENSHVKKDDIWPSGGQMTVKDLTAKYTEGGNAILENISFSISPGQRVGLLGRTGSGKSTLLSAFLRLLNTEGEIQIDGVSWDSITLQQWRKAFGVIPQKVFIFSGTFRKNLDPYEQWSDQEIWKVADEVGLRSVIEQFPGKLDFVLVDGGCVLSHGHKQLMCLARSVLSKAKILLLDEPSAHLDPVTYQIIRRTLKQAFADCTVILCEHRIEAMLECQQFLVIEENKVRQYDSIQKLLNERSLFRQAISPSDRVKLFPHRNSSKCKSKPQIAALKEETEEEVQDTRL

Work on `CC1(C)c2cc3cc(NC(=O)C4(c5ccc6c(c5)OC(F)(F)O6)CC4)c(F)cc3n2C[C@H](CO)OC1O` (stereo partly drawn) [1-(2,2-difluorobenzo[d][1,3]dioxol-5-yl)-N-((4R)-8-fluoro-2-hydroxy-4-(hydroxymethyl)-1,1-dimethyl-1,2,4,5-tetrahydro-[1,4]oxazepino[4,5-a]indol-9-yl)cyclopropanecarboxamide] yielded an Emax greater than 100%.

— US20160166540A1, “MODULATORS FOR ATP-BINDING CASSETTE TRANSPORTERS” (VERTEX PHARMACEUTICALS INCORPORATED, priority 2011, published 2016)
